Experimental data reported in patent publication US9527857B2, “HSPC-sparing treatments for RB-positive abnormal cellular proliferation” (G1 Therapeutics, Inc., priority 2013, dated 2016).
“Also recorded” adds a separate entry of the source.

Tests used:
[1] = Mouse pharmacokinetics (oral gavage / intravenous); format: in vivo, mice; settings: plasma, 30 mg/kg, read-out: F (oral bioavailability)
Experimental: Blood samples were taken at 0, 0.25, 0.5, 1.0, 2.0, 4.0, and 8.0 hours post dosing and the plasma concentrations were determined by HPLC.

[2] = system: Rb phosphorylation at Ser780 and Ser807/811 in A2058; test: Rb phosphorylation western blot, CDK4/6-independent cell line; format: cell-based; settings: 300 nM; 4, 8, 16, 24 hours
Experimental: (§1) MAPK levels are shown as a control for protein levels. Following treatment, cells were harvested and analyzed for Rb-phosphorylation by western blot analysis.
(§2) The CDK4/6-cyclin D complex is essential for progression from G1 to the S-phase of the DNA cell cycle. This complex phosphorylates the retinoblastoma tumor suppressor protein (Rb). […] Samples were lysed and protein was assayed by western blot analysis. Rb phosphorylation was measured at two sites targeted by the CDK4/6-cyclin D complex, Ser780 and Ser807/811 using species specific antibodies.

[3] = system: WM2664 cells (CDK4/6-dependent, Rb-positive); test: Cell cycle arrest (propidium iodide flow cytometry), WM2664; format: cell-based; settings: 300 nM, 24 hours
Excerpt: (§3) To test the ability of CDK4/6 inhibitors to induce a clean G1-arrest, a cell based screening method was used consisting of two CDK4/6-dependent cell lines (tHS68 and WM2664; Rb-positive) and one CDK4/6-independent (A2058; Rb-negative) cell line. […] At the conclusion of the experiment, cells were harvested, fixed, and stained with propidium iodide (a DNA intercalator), which fluoresces strongly red (emission maximum 637 nm) when excited by 488 nm light. Samples were run on Dako Cyan flow cytometer and >10,000 events were collected for each sample. Data were analyzed using FlowJo 2.2 software developed by TreeStar, Inc.

HSPCs (LKS+) = test: Bone marrow HSPC proliferation by EdU incorporation and flow cytometry; format: in vivo; settings: 150 mg/kg oral gavage, mice
Experimental: . JCNI 2012; 104(6):476-487 (FIG. 2A). […].
Mice were then sacrificed at the indicated times (0, 12, 24, 36, or 48 hours following compound administration), and bone marrow was harvested (n=3 mice per time point), as previously described (Johnson et al. J. Clin. Invest. (2010) 120(7), 2528-2536). Four hours before the bone marrow was harvested, mice were treated with 100 μg of EdU by intraperitoneal injection (Invitrogen). Bone marrow mononuclear cells were harvested and immunophenotyped using previously described methods and percent EdU positive cells were then determined (Johnson et al. J. Clin. Invest. (2010) 120(7), 2528-2536). In brief, HSPCs were identified by expression of lineage markers (Lin−), Sca1 (S+), and c-Kit (K+).
Four hours before animals were sacrificed and the bone marrow was harvested, mice were treated with 100 μg of EdU by intraperitoneal injection. Three mice per group were sacrificed at 12 hours and the remaining three animals per group were sacrificed at 24 hours. Results are shown in FIG. 5A as the ratio of EdU positive cells for treated animals at 12 or 24 hour time points compared to control.
Further experiments were completed with Compound T examining dose response and longer periods of compound treatment. […] […].
Both compounds were administered at 150 mg/kg by oral gavage. One hour prior to harvesting bone marrow, EdU was IP injected to label cycling cells. Bone marrow was harvested at 12, 24, 36, and 48 hours after compound treatment and the percentage of EdU positive HSPC cells was determined at each time point.

[4] = system: Rb phosphorylation at Ser780 and Ser807/811 in tHS68 and WM2664; test: Rb phosphorylation western blot, CDK4/6-dependent cell lines; format: cell-based; settings: 300 nM; 4, 8, 16, 24 hours
Experimental: as §1, §2

[5] = system: tHS68 cells (CDK4/6-dependent, Rb-positive); test: Cell cycle arrest (propidium iodide flow cytometry), tHS68; format: cell-based; settings: 24 hours
Excerpt: as §3

[6] = system: MCF7 (breast adenocarcinoma, Rb-positive); test: Cellular proliferation assay (CellTiter-Glo), MCF7; format: cell-based
Experimental: The MCF7 cells were seeded in Costar (Tewksbury, Mass.) 3903 96 well tissue culture treated white walled/clear bottom plates. A nine point dose response dilution series from 10 uM to 1 nM was performed and cell viability was determined after six days of compound treatment as indicated using the CellTiter-Glo® luminescent cell viability assay (CTG; Promega, Madison, Wis., United States of America) following the manufacturer's recommendations. Plates were read on a BioTek (Winooski, Vt.) Syngergy2 multi-mode plate reader. The Relative Light Units (RLU) were plotted as a result of variable molar concentration and data was analyzed using Graphpad (LaJolla, Calif.) Prism 5 statistical software to determine the EC50 for each compound.
Cellular proliferation assays were conducted using the following cancer cell lines: MCF7 (breast adenocarcinoma—Rb-positive), ZR-75-1 (breast ductal carcinoma—Rb-positive), H69 (human small cell lung cancer—Rb-negative) cells, or A2058 (human metastatic melanoma cells—Rb-negative). These cells were seeded in Costar (Tewksbury, Mass.) […] 96 well tissue culture treated white walled/clear bottom plates. Cells were treated with the compounds of Table 1 as nine point dose response dilution series from 10 uM to 1 nM. Cells were exposed to compounds and then cell viability was determined after either four (H69) or six (MCF7, ZR75-1, A2058) days as indicated using the CellTiter-Glo® luminescent cell viability assay (CTG; Promega, Madison, Wis., United States of America) following the manufacturer's recommendations. Plates were read on BioTek (Winooski, Vt.) Syngergy2 multi-mode plate reader. The Relative Light Units (RLU) were plotted as a result of variable molar concentration and data was analyzed using Graphpad (LaJolla, Calif.) Prism 5 statistical software to determine the EC50 for each compound.

Compound: CN1CCN(c2ccc(Nc3ncc4cc5n(c4n3)C3(CCCCC3)CNC5=O)nc2)CC1 [T]
- bioavailability [1]: 80%
- Rb phosphorylation in CDK4/6-independent cells (A2058) [2]: no effect
- cell cycle distribution after treatment [3]: causes a loss of the S-phase peak
- EdU incorporation into HSPCs at 12 and 24 hours (FIG. 5A) (HSPCs (LKS+)): reduction in EdU incorporation at 12 hours which was starting to return to normal at 24 hours
- Rb phosphorylation in CDK4/6-dependent cell lines (tHS68, WM2664) [4]: blocks Rb phosphorylation in Rb-dependent cell lines by 16 hours post exposure; also recorded: reduced Rb-phosphorylation starting 16 hours after treatment
- cell cycle distribution after treatment ([5]; 300 nM, tHS68): causes a loss of the S-phase peak
- S-phase cells at the highest concentration shown ([5]; tHS68 cells, 28% at baseline): 6%
- activity against MCF-7 cells compared with PD0332991 (FIG. 21) [6]: more potent activity against MCF-7 cells than PD0332991
- inhibition of cellular proliferation of MCF-7 cells (FIGS. 21-24) [6]: significant inhibition of cellular proliferation
